Laboratory results reported in patent US4347319A, “Microbiological epoxidation process” (priority 1980, dated 1982).
Entries after “also recorded” stand apart in the source; their conditions may differ.

Tests used:
Assay type in all cases: biochemical
[1] = test system: P(40) particulate fraction of Methylosinus sp. (CRL-15, NRRL B-11,202); experiment: Effect of inhibitors on propylene epoxidation and methane hydroxylation; conditions: inhibitor 10^-3 M; P(40) fraction
Procedure: (§1) The oxidation of methane and propylene by particulate [(P)40 and (P)80] fractions and soluble [S(80)] fraction was measured at 30° C. by estimating the production of methanol and propylene oxide, respectively. The reaction mixtures contained in […]: 150 mM potassium phosphate buffer, pH 7.0 containing 5 mM MgCl2 b, 0.6 ml; 10μ moles NADH, and cellular fraction.
(§2) Reaction mixtures were contained in 10 ml vials at 4° C. Vials were sealed with rubber caps. The gaseous phase in the vials was removed using vacuum and then was replaced with a gas mixture of methane or propylene and oxygen at a 1:1, v/v ratio. Oxidation of other gaseous n-alkanes and n-alkanes was examined as described above. For liquid substrates, 10 μl of substrate was used directly. Vials were then incubated at 30° C. on a rotary shaker at 200 RPM.
It has been reported that the oxidation of methane by cell suspensions of methane-utilizing bacteria was inhibited by various metal-binding or metal-chelating agents (Patel et al., J. Bacteriol. 126: 1017-1019 (1976)). […] (CRL-15, NRRL B-11,202) was examined.

[2] = test system: purified secondary alcohol dehydrogenase (SADH) from Pseudomonas sp. ATCC 21439; experiment: Effect of metal-chelating agents and thio reagents on purified SADH; conditions: final concentration of 1 mM; measured spectrofluorometrically
Procedure: Secondary alcohol dehydrogenase (SADH) from an obligate methanol utilizer, Pseudomonas sp. ATCC 21439 was purified as follows. […] 0.05 M sodium phosphate buffer, pH 7.0 with 0.5 mM dithiothretol (buffer A) and were disrupted sonically (5×1 min.). The crude extract was separated by centrifugation. The crude extract was heat-treated at 50° C. in a water bath for 10 minutes. The resulting precipitate was removed by centrifugation. To the supernatant solution, 25 ml of protamine sulfate solution (2% solution in 0.1 M Tris base) was added dropwise with continuous stirring. After standing for 30 minutes, the extract was centrifuged. The supernatant solution was fractionated with solid ammonium sulfate. […] This DEAE-cellulose eluate was concentrated by ammonium sulfate fractionation. Material precipitating between 30 and 50% ammonium sulfate saturation was collected by centrifugation and dialyzed overnight against A. This fraction was further washed and filtered through an Amicon unit with XM 50 membrane. The concentrated fraction (6 ml) inside the Amicon unit was applied to an Affi-Gel Blue column (0.8 cm×18 cm) which had been equilibrated with buffer A for affinity chromatography. The column was washed overnight with buffer A (0.18 ml./min.) and then was eluted with buffer A containing 5 mM NAD. Each 1 ml. fraction was collected.
The purified secondary alcohol dehydrogenase enzyme (SADH) may be used directly for converting C3 -C6 secondary alcohols to the corresponding methyl ketones by the procedures described above; however, a source of NAD^+ must be added to the reaction medium. One can determine the NAD-linked secondary alcohol dehydrogenase activity with a fluorescence spectrophotometer (Perkin Elmer, Model MPF 44A) by following the formation of reduced NAD (Ex 340 nm, Em 460 nm). The assay system (3 ml.) will typically contain: sodium phosphate buffer pH 7.0, 150 μmol; NAD 1.0 μmol; a given amount of enzyme preparation; and 20 μmol secondary alcohol. The reaction is started by the addition of secondary alcohol. One unit of SADH enzyme activity represents the reduction of one nmole NAD per minute.
The effect of metal-chelating agents and chioreagents on the activity of the purified SADH enzyme were studied. […] The possibility of ethanol or n-propanol as an inhibitor was studied.

[3] = test system: cell-free particulate fractions derived from the methylotrophic microorganisms; experiment: Inhibition of conversion of C3 -C6 n-alkanes to sec. alcohols; conditions: oxygen and NADH present
Source text: The conditions for preparing the cell suspensions or the cell-free particulate fractions from methane-grown methylotroph microorganisms is the same as described above.

[4] = test system: purified secondary alcohol dehydrogenase from Pichia sp. NRRL Y-11,328; experiment: Inhibitors of purified yeast SADH; conditions: primary alcohols tested at 10^-3 M
Procedure: Large scale cultures of Pichia sp. NRRL Y-11,328 were grown with aeration at 30° C. in a 14-liter New Brunswick f fermentor in a mineral salt medium containing methanol (0.4%, v/v) as the sole carbon source. The cells (200 g., wet weight) were suspended in […] sodium phosphate buffer, pH 7.0, containing 1 mM dithiothreitol (buffer A), and crude extracts were prepared as described previously. To the crude extracts, 18 ml. of protamine sulfate solution [2% solution in 0.1 M tris (hydroxymethyl) aminomethane (tris) base] was added dropwise with continuous stirring. After standing for 30 min., the extracts were centrifuged at 20,000×g. for 60 min. The supernatant solution was fractionated with solid ammonium sulfate. Extracts were brought to 50% of saturation with respect to ammonium sulfate by addition of 313 g. of the salt per liter of extract. Precipitated proteins was removed by centrifugation, and 137 g. of ammonium sulfate was added per liter of the supernatant liquid to bring it to 70% of saturation. Material precipitating between 50 and 70% of saturation was collected by centrifugation and dissolved in buffer A. This preparation was dialyzed overnight against buffer A, and the dialyzed material was applied to a DEAE-cellulose column (5×40 cm) that had been equilibrated with buffer A. The sample was washed with 200 ml. of buffer A and eluted with 2 liters of buffer A that contained NaCl in a linear gradient running from a concentration of 0 to 0.5 M. Fractions of 15 ml. were collected. Fractions containing secondary alcohol dehydrogenase activity were pooled and were termed DEAE-cellulose eluate. The DEAE-cellulose eluate was concentrated by ammonium sulfate fractionation.
Secondary alcohol dehydrogenase activity was measured spectrophotometrically at 340 nm with a NAD^+ as an electron acceptor. The reaction mixture, in a total 3.0 ml., contained 50 mM phosphate buffer, pH 8,0, 5 μ moles NAD^+, crude extracts, and substrate. The reactions were started by addition of 100 µl of 0.1 M substrate and the rate of NAD^+ reduction was measured. Protein concentration was determined by the method of Lowry et al.
Various primary alcohols not oxidized by secondary alcohol dehydrogenase were tested as potential inhibitors of enzyme activity.

[5] = test system: P(40) particulate fraction of Methylosinus sp. (CRL-15, NRRL B-11,202); experiment: Effect of metals on propylene epoxidation and methane hydroxylation; conditions: metal 10^-3 M, P(40) fraction
Procedure: as §1
as §2, with “directly.” for “directly. Vials were then incubated at 30° C. on a rotary shaker at 200 RPM.”
Since the methane mono-oxygenase from methane-utlizing bacteria is a copper or iron-containing protein (Tonge et al., J. Biochem., 161: 333-344 (1977)), we have examined the effect of copper and iron salts on the oxidation of methane and propylene by the P(40) particulate fraction of Methylosinus sp. (CRL-15, NRRL B-11,202). The rate of hydroxylation of methane to methanol and epoxidation of propylene to propylene oxide was increased twofold in the presence of added copper salts (Table XII).

[6] = test system: cell-free soluble extracts of C1 -utilizing microbes (secondary alcohol dehydrogenase); experiment: Cofactor requirement of cell-free SADH systems
Procedure: Catalytic activity was also assayed by fluorescence spectrophotometry.

[7] = test system: purified secondary alcohol dehydrogenase from Pichia sp. NRRL Y-11,328; experiment: Substrate specificity, electron acceptor and stoichiometry of purified yeast SADH

SMILES: c1cnc2c(c1)ccc1cccnc12 [1,10-Phenanthroline]
- % Inhibition, Methane-Hydroxylating Activity [1]: 90%
- % Inhibition, Propylene-Epoxidizing Activity [1]: 93%
- % inhibition of SADH activity [2]: 95%
- inhibition of conversion of n-alkanes to sec. alcohols [3]: inhibited
- inhibition of secondary alcohol dehydrogenase activity [4]: strongly inhibited

SMILES: Oc1cccc2cccnc12 [8-Hydroxyquinoline]
- % Inhibition, Methane-Hydroxylating Activity [1]: 80%
- % Inhibition, Propylene-Epoxidizing Activity [1]: 75%
- inhibition of conversion of n-alkanes to sec. alcohols [3]: inhibited

SMILES: O=S(=O)([O-])[O-].[Cu+2] [Cupric Sulfate]
- Methane-Oxidizing Activity ([5]; control 4.0): 7.1 μmoles/hr/mg protein
- Propylene-Oxidizing Activity ([5]; control […]): 9.0 μmoles/hr/mg protein
- inhibition of secondary alcohol dehydrogenase activity [4]: inhibited

SMILES: Cc1cc2nc3c(=O)[nH]c(=O)nc-3n(C[C@H](O)[C@H](O)[C@H](O)COP(=O)(O)OP(=O)(O)OC[C@H]3O[C@@H](n4cnc5c(N)ncnc54)[C@H](O)[C@@H]3O)c2cc1C [FAD, flavin adenine dinucleotide]
- effectiveness as cofactor for oxidation of secondary alcohols [6]: not effective
- electron acceptor / carrier [7]: could not act as electron carrier

SMILES: c1c[nH]cn1 [Imidazole]
- inhibition of secondary alcohol dehydrogenase activity [4]: strongly inhibited

SMILES: NC(=O)C1=CN([C@@H]2O[C@H](COP(=O)(O)OP(=O)(O)OC[C@H]3O[C@@H](n4cnc5c(N)ncnc54)[C@H](OP(=O)(O)O)[C@@H]3O)[C@@H](O)[C@H]2O)C=CC1 [NAD(P)H]
- effectiveness as cofactor for oxidation of secondary alcohols [6]: not effective

SMILES: NC(=O)c1ccc[n+]([C@@H]2O[C@H](COP(=O)([O-])OP(=O)(O)OC[C@H]3O[C@@H](n4cnc5c(N)ncnc54)[C@H](O)[C@@H]3O)[C@@H](O)[C@H]2O)c1 [NAD, Nicotinamide adenine dinucleotide]
- effectiveness as cofactor for oxidation of secondary alcohols [6]: requirement; also recorded: required
- electron acceptor / carrier [7]: required

SMILES: NC(=O)c1ccc[n+]([C@@H]2O[C@H](COP(=O)([O-])OP(=O)(O)OC[C@H]3O[C@@H](n4cnc5c(N)ncnc54)[C@H](OP(=O)(O)O)[C@@H]3O)[C@@H](O)[C@H]2O)c1 [NADP]
- effectiveness as cofactor for oxidation of secondary alcohols [6]: not effective
- electron acceptor / carrier [7]: could not act as electron carrier

SMILES: NNC(N)=S [Thiosemicarbazide]
- % Inhibition, Methane-Hydroxylating Activity [1]: 100%
- % Inhibition, Propylene-Epoxidizing Activity [1]: 97%
- inhibition of conversion of n-alkanes to sec. alcohols [3]: inhibited

SMILES: NC(N)=S [Thiourea]
- % Inhibition, Methane-Hydroxylating Activity [1]: 98%
- % Inhibition, Propylene-Epoxidizing Activity [1]: 98%
- % inhibition of SADH activity [2]: 0%
- inhibition of conversion of n-alkanes to sec. alcohols [3]: inhibited

SMILES: O=C1C(Cl)=CC(=Nc2ccc(O)cc2)C=C1Cl [dichlorophenol indophenol]
- effectiveness as cofactor for oxidation of secondary alcohols [6]: not effective
- electron acceptor / carrier [7]: could not act as electron carrier

SMILES: N[C@@H](CCC(=O)N[C@@H](CS)C(=O)NCC(=O)O)C(=O)O [glutathione]
- effectiveness as cofactor for oxidation of secondary alcohols [6]: not effective
- inhibition of secondary alcohol dehydrogenase activity [4]: strongly inhibited

SMILES: N#C[S][Hg][S]C#N [mercuric thiocyanate]
- inhibition of secondary alcohol dehydrogenase activity [4]: inhibited

SMILES: O=C(O)c1cc[c]([Hg+])cc1.[OH-] [p-hydroxymercuribenzoate]
- % inhibition of SADH activity [2]: 100%
- inhibition of secondary alcohol dehydrogenase activity [4]: strongly inhibited

SMILES: C[n+]1c2ccccc2nc2ccccc21 [phenazine methosulfate]
- effectiveness as cofactor for oxidation of secondary alcohols [6]: not effective
- electron acceptor / carrier [7]: could not act as electron carrier

SMILES: O=[N+]([O-])[O-].[Ag+] [silver nitrate]
- inhibition of secondary alcohol dehydrogenase activity [4]: inhibited

SMILES: c1ccc(-c2ccccn2)nc1 [α,α-Bipyridyl]
- % Inhibition, Methane-Hydroxylating Activity [1]: 99%
- % Inhibition, Propylene-Epoxidizing Activity [1]: 98%
- % inhibition of SADH activity [2]: 70%
- inhibition of conversion of n-alkanes to sec. alcohols [3]: inhibited
